Data: patent US20120101160A1, “Use of chemical chaperones to treat glaucoma caused by misfolded or misprocessed proteins” (Alcon, Inc., priority 2004, published 2012)

Legend:
[1] = target: ΔF508 cystic fibrosis transmembrane conductance regulator protein (CFTR) (Homo sapiens, UniProt P13569, DEL508-508); conditions: cells expressing ΔF508 CFTR; similar to cells expressing the wild-type CFTR protein; cited from earlier work
mutant (Q368X) myocilin = target: T1, mutant (Q368X) myocilin (Homo sapiens, UniProt Q99972); assay: secretion of mutant myocilin in cultured CHO cells (Western blot of media and lysates); type: cell-based; conditions: CHO stable transfectants expressing Q368X myocilin; overnight incubation with chemical chaperone; glycerol 10%; E and I lanes; FIG. 1/FIG. 2
T1 construct: expressed in transfected cells
T1 sequence (Q99972 33-367 limits assumed): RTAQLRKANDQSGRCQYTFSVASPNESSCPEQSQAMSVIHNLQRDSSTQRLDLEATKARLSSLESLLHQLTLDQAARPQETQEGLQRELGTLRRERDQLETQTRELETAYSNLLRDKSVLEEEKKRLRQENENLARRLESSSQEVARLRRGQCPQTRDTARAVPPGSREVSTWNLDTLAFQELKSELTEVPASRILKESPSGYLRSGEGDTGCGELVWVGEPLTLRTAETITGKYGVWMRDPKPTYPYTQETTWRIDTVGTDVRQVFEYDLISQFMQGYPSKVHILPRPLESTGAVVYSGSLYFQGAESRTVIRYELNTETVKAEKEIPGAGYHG
Description: (§1) Wild-type myocilin is normally expressed and secreted from the human TM, whereas mutant disease-causing myocilin is retained intracellularly (Jacobson, Andrews et al. 2001). […] We tested several compounds for their ability to effect secretion of mutant myocilin in cultured CHO cells that were engineered for their ability to express, but not secrete, mutant (Y437H or Q368X) myocilin. Plasmids expressing wild-type or mutant myocilin were generated as described (Jacobson, Andrews et al. 2001).
(§2) CHO stable transfectants were grown in F12K media containing 10% FBS supplemented with penicillin-streptomycin-glutamine. Stable transfectants were generated by transfection with lipofectamine plus (Invitrogen) followed by limiting dilution plating and selection in G-418 (600 ug/ml). CHO cells were incubated with serum-free media 24 h post-transfection and media or cell lysates were collected after overnight incubation with the chemical chaperone. Equivalent cell lysate protein amounts (5 ug) were loaded for SDS-PAGE analysis. Cell media was not concentrated and was loaded at 16 ul per lane for SDS-PAGE/Western blot analysis.
(§3) Cells were rinsed with PBS and solubilized in a commercial mammalian extraction buffer (M-Per™; Pierce, Rockford, Ill.) supplemented with a protease inhibitor cocktail (Complete, EDTA-free; Boehringer Mannheim, Indianapolis, Ind.) followed by centrifugation at 12,000×g for 5 min. Protein concentration of the supernatant was determined with Coomasie Plus Protein Assay Reagent (Pierce). Cell extracts were stored at −20° C.
(§4) Cell media or extracts were analyzed using pre-cast NuPAGE polyacrylamide gels and the Novex gel electrophoresis system (Novex, San Diego, Calif.). Proteins were electroblotted to Hybond-P PVDF membranes (Amersham Pharmacia Biotech, Piscataway, N.J.), blocked with gelatin, and probed with affinity purified rabbit anti-MYOC antibody 129 (generated to myocilin peptide 156-171) (Jacobson, Andrews et al. 2001) and an anti-rabbit IgG secondary antibody (Amersham). Immunoreactivity was detected with the ECL Plus detection system (Amersham). Blots were exposed to BioMax MR film (Eastman Kodak, Rochester, N.Y.) and scanned with a Hewlett-Packard ScanJet ADF scanner (Hewlett Packard, Boise, Id.) for figure presentation.

mutant (Y437H) myocilin = target: T2, mutant (Y437H) myocilin (Homo sapiens, UniProt Q99972, Y437H); assay: as above; type: cell-based; conditions: CHO stable transfectants expressing Y437H myocilin; overnight incubation with chemical chaperone; glycerol 10%; E lane; FIG. 1/FIG. 2
T2 construct: expressed in transfected cells
T2 sequence (Q99972 33-504 Y437H): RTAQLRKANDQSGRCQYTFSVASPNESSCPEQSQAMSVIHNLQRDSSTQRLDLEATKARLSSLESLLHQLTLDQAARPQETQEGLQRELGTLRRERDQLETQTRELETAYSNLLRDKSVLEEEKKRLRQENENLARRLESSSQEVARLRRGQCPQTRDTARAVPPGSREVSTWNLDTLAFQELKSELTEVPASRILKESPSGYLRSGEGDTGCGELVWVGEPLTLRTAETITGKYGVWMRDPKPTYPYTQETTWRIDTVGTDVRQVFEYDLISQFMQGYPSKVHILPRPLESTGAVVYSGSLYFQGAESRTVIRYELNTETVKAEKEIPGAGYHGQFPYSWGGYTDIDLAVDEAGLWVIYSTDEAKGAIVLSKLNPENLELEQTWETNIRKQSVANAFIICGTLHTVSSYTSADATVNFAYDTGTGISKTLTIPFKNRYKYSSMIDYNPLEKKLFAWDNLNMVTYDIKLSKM
Description: as §1, §2, §3, §4

Chain of ΔF508 cystic fibrosis transmembrane conductance regulator protein (CFTR) (P13569 with tags, fused parts or gaps DEL508-508): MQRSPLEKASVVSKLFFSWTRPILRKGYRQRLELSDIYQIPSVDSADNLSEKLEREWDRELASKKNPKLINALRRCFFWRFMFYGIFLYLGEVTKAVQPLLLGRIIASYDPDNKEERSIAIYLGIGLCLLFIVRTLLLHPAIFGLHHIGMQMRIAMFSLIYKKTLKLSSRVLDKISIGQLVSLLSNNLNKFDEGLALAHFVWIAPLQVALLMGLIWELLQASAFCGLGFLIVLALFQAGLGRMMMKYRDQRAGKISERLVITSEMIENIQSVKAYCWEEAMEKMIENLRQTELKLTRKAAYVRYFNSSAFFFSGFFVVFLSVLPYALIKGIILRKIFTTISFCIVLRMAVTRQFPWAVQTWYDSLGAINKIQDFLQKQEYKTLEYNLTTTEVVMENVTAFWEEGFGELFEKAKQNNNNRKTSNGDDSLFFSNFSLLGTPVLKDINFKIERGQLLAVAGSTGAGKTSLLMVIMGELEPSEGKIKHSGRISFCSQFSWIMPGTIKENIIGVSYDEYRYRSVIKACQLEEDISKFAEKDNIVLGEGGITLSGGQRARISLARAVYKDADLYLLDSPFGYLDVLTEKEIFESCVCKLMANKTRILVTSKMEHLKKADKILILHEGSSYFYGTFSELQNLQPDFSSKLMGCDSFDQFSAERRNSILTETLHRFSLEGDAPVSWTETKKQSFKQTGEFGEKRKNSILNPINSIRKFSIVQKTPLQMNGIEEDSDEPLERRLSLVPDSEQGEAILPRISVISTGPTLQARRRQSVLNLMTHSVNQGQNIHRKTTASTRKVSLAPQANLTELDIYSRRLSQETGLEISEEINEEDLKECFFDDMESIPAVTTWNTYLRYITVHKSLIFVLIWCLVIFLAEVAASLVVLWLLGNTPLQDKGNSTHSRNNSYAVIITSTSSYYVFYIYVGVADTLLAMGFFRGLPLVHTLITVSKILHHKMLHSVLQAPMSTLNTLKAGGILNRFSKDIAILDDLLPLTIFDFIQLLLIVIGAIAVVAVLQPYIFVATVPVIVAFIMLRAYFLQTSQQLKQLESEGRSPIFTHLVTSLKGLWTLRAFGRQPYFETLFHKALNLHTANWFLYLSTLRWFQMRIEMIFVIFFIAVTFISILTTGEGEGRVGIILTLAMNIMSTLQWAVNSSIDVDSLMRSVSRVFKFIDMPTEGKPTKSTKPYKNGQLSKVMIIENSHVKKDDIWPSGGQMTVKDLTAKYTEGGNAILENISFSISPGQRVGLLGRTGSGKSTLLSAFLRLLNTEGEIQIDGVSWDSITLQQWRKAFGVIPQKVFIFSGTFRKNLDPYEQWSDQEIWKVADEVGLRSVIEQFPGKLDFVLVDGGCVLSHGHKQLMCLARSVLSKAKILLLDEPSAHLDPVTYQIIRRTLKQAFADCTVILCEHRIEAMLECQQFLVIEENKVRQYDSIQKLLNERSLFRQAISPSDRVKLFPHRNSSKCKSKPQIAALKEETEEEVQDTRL

| Molecule | restoration of forskolin-dependent chloride transport [1] | ability to effect secretion of mutant myocilin (mutant (Q368X) myocilin) | ability to effect secretion of mutant myocilin (mutant (Y437H) myocilin) |
| --- | --- | --- | --- |
| OCC(O)CO [Glycerol, glycerol] | restored the ability of the mutant cells to exhibit forskolin-dependent chloride transport | able to effect full-length myocilin secretion | able to effect full-length myocilin secretion |
| [2H]O[2H] [deuterated water] | restored the ability of the mutant cells to exhibit forskolin-dependent chloride transport |  |  |
| C[N+](C)(C)[O-] [trimethylamine N-oxide] | restored the ability of the mutant cells to exhibit forskolin-dependent chloride transport |  |  |
| Gentamycin |  | did not effect secretion of mutant myocilin | did not effect secretion of mutant myocilin |
